Here are results for three compounds from US20260306500A1, “METHOD OF INHIBITING ADENOSINE TRIPHOSPHATE SECRETION, METHOD OF INHIBITING HEPATIC STELLATE CELL ACTIVATION, METHOD OF DEACTIVATING HEPATIC STELLATE CELL, METHOD OF TREATING HEPATIC FIBROSIS, METHOD OF TREATING NON-ALCOHOLIC STEATOHEPATITIS, AND METHOD OF TREATING PSORIASIS” (Kurume University, priority 2023, published 2026).

Data set [1] deals with α-SMA-positive cells (stellate cells) in mouse liver. Description: TAA-induced activation of HSCs in mice: α-SMA immunostaining of liver sections. It counts as in vivo. An excerpt: For immunohistochemical analysis, liver samples were fixed in 4% paraformaldehyde, embedded in paraffin, and then sectioned. The sections were stained with HE or PSR. In addition, the paraffin-embedded sections were subjected to immunostaining using an α-SMA monoclonal antibody (1:500, catalog No. A5228, manufactured by Sigma-Aldrich) and an F4/80 monoclonal antibody (1:200, catalog No. MCA497GA, manufactured by AbD Serotec). The cell specimens were observed using a microscope (BZ-X700 series, manufactured by Keyence) or a confocal laser microscope (FV1000, manufactured by Olympus Corporation). The number of F4/80-positive cells was counted in four high-power fields per section. The α-SMA-positive area and the PSR-positive area were quantified using the image analysis software Fiji-ImageJ (1.54f).
In accordance with Example 15, immunostaining of α-SMA in liver sections and observation by fluorescence microscopy were performed for the normal control group, the TAA group, and the TAA+IMG group, and for a TAA+Clo group, which was treated in the same manner as the TAA+IMG group except that clodronate, instead of imeglimin, was administered at 30 mg/kg by blending it in the drinking water from 1 week after the start of TAA administration.

A further data set has as its system mouse auricle. Nature of the data set: Topical solutions on imiquimod-induced psoriasis (Example 21). The data set is classed as in vivo. To be noted: for degree of auricular thickening: N=2 (FIG. 44). The protocol: On Days 1, 2, 3, 5, and 6, 62.5 mg of 5% imiquimod cream (Beselna Cream 5%) was applied to auricles of wild-type mice (IMQ) or VNUT knockout mice (VNUT KO+IMQ) to induce psoriatic symptoms. […] For a negative control, only 20% glycerin solution was applied. In IMQ+1% IMG and IMQ+0.1% IMG, 20% glycerin solution supplemented with 1% (w/v) imeglimin and 0.1% (w/v) imeglimin, respectively, was applied immediately after the imiquimod application. Further, in IMQ+1% Clo and IMQ+0.1% Clo, 20% glycerin solution supplemented with 1% (w/v) clodronate and 0.1% (w/v) clodronate, respectively, was applied immediately after the imiquimod application.

For the next data set, the system named is ATP secretion. To be noted: known; cited from earlier work.
For the next data set, the system named is V-ATPase. Description: Inhibitory effect on V-ATPase (data not shown).
For data set [2], the system named is chromaffin granule membrane. Description: ATP transport (uptake of radiolabeled ATP) in chromaffin granule membrane vesicles. The data set is classed as biochemical, cattle. To be noted: role: inhibitor; 1 mM 3H-ATP, 30° C., 1 hour, N=3 (FIG. 5); read-out: IC50 (concentration at 50% inhibition) of ATP transport. The protocol:
Chromaffin granule membranes were prepared from adrenal glands collected from slaughtered cattle according to Reference A (Nathan Nelson et al., 1988, Chromaffin Granule Proton Pump, Methods in Enzymology, 157, 619-633). Chromaffin granule membranes prepared by sucrose density gradient centrifugation were suspended in 2 ml of SME buffer (20 mM MOPS-tris (pH 7.0), 0.3 M sucrose, 5 mM EDTA, 10 μg/ml leupeptin, and 10 μg/ml pepstatin)+25% glycerol, and the resulting suspension was aliquoted and stored at −80° C. Under these conditions, the ATP transport activity, the V-ATPase activity, and the catecholamine transport activity remain fully active for at least one year.
An ATP transport inhibition experiment for the chromaffin granule membrane was carried out according to Reference B (Yoshinori Moriyama et al., 2022, Is the vesicular nucleotide transporter a molecular target of eicosapentaenoic acid?, Frontiers in Pharmacology, 103389). About 20 μg of chromaffin granule membranes were added to 0.5 ml of measurement buffer (20 mM MOPS-tris (pH 7.0), 0.3 M sucrose, 5 mM potassium chloride, 5 mM magnesium acetate, 5 mM creatine phosphate, 10 units of creatine kinase, and 1 mM 3[H]-ATP [15 KBq/assay]), followed by incubation at 30° C. for 1 hour. Through a Millipore MCE membrane filter with a pore size […], 0.2 ml of the reaction liquid was filtered by suction. Thereafter, the filter was washed with 10 ml of 20 mM MOPS-tris (pH 7.0), 0.3 M sucrose, 5 mM potassium chloride, and 5 mM magnesium acetate, and dissolved in 10 ml of Clear-sol II (manufactured by Nacalai Tesque, Inc.). The radioactivity was then measured using a liquid scintillation counter (N=3).
The reaction was initiated by adding 50 mM ^3[H]-ATP to a final concentration of 1 mM. The 50 mM ^3[H]-ATP was prepared by mixing an ATP-tris solution (manufactured by Sigma-Aldrich) with [2,8-^3H]adenosine triphosphate tetrasodium salt (26.0 Ci/mmol) (manufactured by New England Nuclear). PEP was used as a test reagent, and pyruvic acid was used as a negative control. Five minutes before the addition of ATP, PEP or pyruvic acid, as a solution in 20 mM MOPS-tris (pH 7.0), 0.3 M sucrose, 5 mM potassium chloride, and 5 mM magnesium acetate, was added to the measurement liquid to a final PEP concentration of 0.02, 0.05, 0.1, 0.2, 0.4, or 1 mM, or to a final pyruvic acid concentration of 0.5 or 1 mM.
Chromaffin granule membrane vesicles were prepared in the same manner as in Example 5, and uptake of radiolabeled ATP into the vesicles was measured. Transport activity of catecholamine (dopamine) and ATP-dependent proton transport by V-ATPase were also measured in the same manner as in Example 5.

The conditions of data set [3]: PEP; cited from earlier work.
For data set [4], the system named is isolated chromaffin granules. To be noted: role: inhibitor; 1 to 10 mM PEP; cited from earlier work.
The mark [5] stands for this setting: topical 0.1% (w/v) in 20% glycerin solution after imiquimod.
Setting [6] is: topical 1% (w/v) in 20% glycerin solution after imiquimod.

For the compound `O=P(O)(O)C(Cl)(Cl)P(=O)(O)O` [clodronate], in data set [1] (30 mg/kg clodronate in drinking water (FIG. 29)), the “TAA-induced increase in α-SMA-positive reaction” value is given as “markedly suppressed”. The “auricular thickness compared with imiquimod-treated VNUT knockout mice” value in the data set with mouse auricle (topical 0.1% (w/v)) and with mouse auricle (topical 1% (w/v)) was “about the same” in each case. Further, the “degree of auricular thickening” value in the data set with mouse auricle (setting [5]) and in the data set with mouse auricle (setting [6]) was “improved” throughout. For the same compound, the “ATP secretion inhibitory action” value in the data set on ATP secretion is “known to have an ATP secretion inhibitory action”.
For the compound `C[C@@H]1N=C(N)NC(N(C)C)=N1` [imeglimin], the “inhibitory effect on V-ATPase” value with V-ATPase is “neither imeglimin nor metformin exhibited a strong inhibitory effect”. Further, the “α-SMA immunostaining, effect compared with clodronate” value in data set [1] (imeglimin 200 mg/kg p.o. (FIG. 30)) is given as “effect similar to that of clodronate”. For the same compound, the “degree of auricular thickening” value was “no effect” with mouse auricle (setting [5]) and “improved” with mouse auricle (setting [6]). Further, the “concentration dependence of effect on auricular thickening” value in the data set with mouse auricle (topical 0.1% and 1% (w/v)) is “concentration-dependent”. For the same compound, the “auricular thickness compared with imiquimod-treated VNUT knockout mice” value with mouse auricle (topical 1% (w/v)) is on record as “about the same”.
On to `C=C(OP(=O)(O)O)C(=O)O` [PEP, phosphoenolpyruvic acid], for which the IC50 in data set [2] stood at 25 µM. Further, the “energy of phosphate bond in vivo” value in data set [3] is -14.8 kcal/mol. Also, in data set [4], the “uptake of ATP into isolated chromaffin granules” value is recorded as “inhibited”.
